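Where inhibition never reached the appropriate level, the endpoint shown equals the highest concentration tested. Otherwise, values were interpolated linearly from a five-concentration, 48-hour dose response in 96-well plates. Here, GI50 denotes the concentration required for 50% inhibition of growth. TGI is the concentration that stops growth completely.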
Experiments:
Assay in all cases: growth of human tumour cells (NCI), 48 h
LOX IMVI melanoma = tested on: LOX IMVI melanoma
M14 melanoma = tested on: M14 melanoma
CAKI-1 renal = tested on: CAKI-1 renal
HCC-2998 colon = tested on: HCC-2998 colon
IGROV1 ovarian = tested on: IGROV1 ovarian
OVCAR-5 ovarian = tested on: OVCAR-5 ovarian
HOP-62 NSCLC = tested on: HOP-62 NSCLC
OVCAR-4 ovarian = tested on: OVCAR-4 ovarian
K-562 leukemia = tested on: K-562 leukemia
HCT-116 colon = tested on: HCT-116 colon
CCRF-CEM leukemia = tested on: CCRF-CEM leukemia
SF-295 CNS = tested on: SF-295 CNS
SK-OV-3 ovarian = tested on: SK-OV-3 ovarian
HL-60(TB) leukemia = tested on: HL-60(TB) leukemia
HS 578T breast = tested on: HS 578T breast
SK-MEL-5 melanoma = tested on: SK-MEL-5 melanoma
OVCAR-8 ovarian = tested on: OVCAR-8 ovarian
HCT-15 colon = tested on: HCT-15 colon
BT-549 breast = tested on: BT-549 breast
SN12C renal = tested on: SN12C renal
A549 NSCLC = tested on: A549 NSCLC
MCF7 breast = tested on: MCF7 breast
MOLT-4 leukemia = tested on: MOLT-4 leukemia
SF-268 CNS = tested on: SF-268 CNS
DU-145 prostate = tested on: DU-145 prostate
PC-3 prostate = tested on: PC-3 prostate
SK-MEL-2 melanoma = tested on: SK-MEL-2 melanoma
UACC-257 melanoma = tested on: UACC-257 melanoma
NCI-H522 lung = tested on: NCI-H522 lung
TK-10 renal = tested on: TK-10 renal
NCI/ADR-RES ovarian = tested on: NCI/ADR-RES ovarian
UACC-62 melanoma = tested on: UACC-62 melanoma
SR leukemia = tested on: SR leukemia
EKVX NSCLC = tested on: EKVX NSCLC
RPMI-8226 leukemia = tested on: RPMI-8226 leukemia
SK-MEL-28 melanoma = tested on: SK-MEL-28 melanoma
KM12 colon = tested on: KM12 colon
U251 CNS = tested on: U251 CNS
MDA-MB-435 = tested on: MDA-MB-435
786-0 renal = tested on: 786-0 renal
SW-620 colon = tested on: SW-620 colon
A498 renal = tested on: A498 renal
COLO 205 colon = tested on: COLO 205 colon
HT29 colon = tested on: HT29 colon
SNB-75 CNS = tested on: SNB-75 CNS
ACHN renal = tested on: ACHN renal
NCI-H226 lung = tested on: NCI-H226 lung
NCI-H460 lung = tested on: NCI-H460 lung
RXF 393 renal = tested on: RXF 393 renal
SNB-19 CNS = tested on: SNB-19 CNS
UO-31 renal = tested on: UO-31 renal
SF-539 CNS = tested on: SF-539 CNS
HOP-92 NSCLC = tested on: HOP-92 NSCLC
NCI-H23 lung = tested on: NCI-H23 lung
MDA-MB-231 breast = tested on: MDA-MB-231 breast

Compound: CCN1C(=O)N(CC)C2SC(N/N=C/c3ccc(OC)cc3)=NC21 (stereo not given)
- GI50 (LOX IMVI melanoma): 564 nM
- TGI (LOX IMVI melanoma): > 100 µM
- GI50 (M14 melanoma): 322 nM
- TGI (M14 melanoma): 34.2 µM
- GI50 (CAKI-1 renal): 425 nM
- TGI (CAKI-1 renal): > 100 µM
- GI50 (HCC-2998 colon): 795 nM
- TGI (HCC-2998 colon): > 100 µM
- GI50 (IGROV1 ovarian): 648 nM
- TGI (IGROV1 ovarian): > 100 µM
- GI50 (OVCAR-5 ovarian): 917 nM
- TGI (OVCAR-5 ovarian): > 100 µM
- GI50 (HOP-62 NSCLC): 433 nM
- TGI (HOP-62 NSCLC): > 100 µM
- GI50 (OVCAR-4 ovarian): > 100 µM
- TGI (OVCAR-4 ovarian): > 100 µM
- GI50 (K-562 leukemia): 350 nM
- TGI (K-562 leukemia): > 100 µM
- GI50 (HCT-116 colon): 394 nM
- TGI (HCT-116 colon): > 40.3 µM
- GI50 (CCRF-CEM leukemia): 334 nM
- TGI (CCRF-CEM leukemia): > 100 µM
- GI50 (SF-295 CNS): 317 nM
- TGI (SF-295 CNS): > 83.8 µM
- GI50 (SK-OV-3 ovarian): 453 nM
- TGI (SK-OV-3 ovarian): > 100 µM
- GI50 (HL-60(TB) leukemia): 281 nM
- TGI (HL-60(TB) leukemia): 9.06 µM
- GI50 (HS 578T breast): 305 nM
- TGI (HS 578T breast): > 100 µM
- GI50 (SK-MEL-5 melanoma): 462 nM
- TGI (SK-MEL-5 melanoma): 3.01 µM
- GI50 (OVCAR-8 ovarian): 428 nM
- TGI (OVCAR-8 ovarian): 6.61 µM
- GI50 (HCT-15 colon): 404 nM
- TGI (HCT-15 colon): > 100 µM
- GI50 (BT-549 breast): 322 nM
- TGI (BT-549 breast): 1320 nM
- GI50 (SN12C renal): 594 nM
- TGI (SN12C renal): > 100 µM
- GI50 (A549 NSCLC): 666 nM
- TGI (A549 NSCLC): > 100 µM
- GI50 (MCF7 breast): 381 nM
- TGI (MCF7 breast): > 100 µM
- GI50 (MOLT-4 leukemia): 589 nM
- TGI (MOLT-4 leukemia): > 100 µM
- GI50 (SF-268 CNS): 2510 nM
- TGI (SF-268 CNS): > 100 µM
- GI50 (DU-145 prostate): 478 nM
- TGI (DU-145 prostate): > 100 µM
- GI50 (PC-3 prostate): 449 nM
- TGI (PC-3 prostate): > 100 µM
- GI50 (SK-MEL-2 melanoma): 504 nM
- TGI (SK-MEL-2 melanoma): > 100 µM
- GI50 (UACC-257 melanoma): 2320 nM
- TGI (UACC-257 melanoma): > 100 µM
- GI50 (NCI-H522 lung): 235 nM
- TGI (NCI-H522 lung): 760 nM
- GI50 (TK-10 renal): > 100 µM
- TGI (TK-10 renal): > 100 µM
- GI50 (NCI/ADR-RES ovarian): 395 nM
- TGI (NCI/ADR-RES ovarian): > 100 µM
- GI50 (UACC-62 melanoma): 390 nM
- TGI (UACC-62 melanoma): > 100 µM
- GI50 (SR leukemia): 308 nM
- TGI (SR leukemia): > 100 µM
- GI50 (EKVX NSCLC): 704 nM
- TGI (EKVX NSCLC): > 100 µM
- GI50 (RPMI-8226 leukemia): 423 nM
- TGI (RPMI-8226 leukemia): > 100 µM
- GI50 (SK-MEL-28 melanoma): > 100 µM
- TGI (SK-MEL-28 melanoma): > 100 µM
- GI50 (KM12 colon): 457 nM
- TGI (KM12 colon): > 100 µM
- GI50 (U251 CNS): 365 nM
- TGI (U251 CNS): > 100 µM
- GI50 (MDA-MB-435): 205 nM
- TGI (MDA-MB-435): 522 nM
- GI50 (786-0 renal): 849 nM
- TGI (786-0 renal): 51.7 µM
- GI50 (SW-620 colon): 380 nM
- TGI (SW-620 colon): > 100 µM
- GI50 (A498 renal): 217 nM
- TGI (A498 renal): 685 nM
- GI50 (COLO 205 colon): 273 nM
- TGI (COLO 205 colon): 751 nM
- GI50 (HT29 colon): 322 nM
- TGI (HT29 colon): 1280 nM
- GI50 (SNB-75 CNS): 321 nM
- TGI (SNB-75 CNS): > 100 µM
- GI50 (ACHN renal): 811 nM
- TGI (ACHN renal): > 100 µM
- GI50 (NCI-H226 lung): 438 nM
- TGI (NCI-H226 lung): > 72 µM
- GI50 (NCI-H460 lung): 357 nM
- TGI (NCI-H460 lung): > 100 µM
- GI50 (RXF 393 renal): 282 nM
- TGI (RXF 393 renal): > 100 µM
- GI50 (SNB-19 CNS): 464 nM
- TGI (SNB-19 CNS): > 100 µM
- GI50 (UO-31 renal): 686 nM
- TGI (UO-31 renal): > 100 µM
- GI50 (SF-539 CNS): 269 nM
- TGI (SF-539 CNS): 857 nM
- GI50 (HOP-92 NSCLC): 283 nM
- TGI (HOP-92 NSCLC): 4.66 µM
- GI50 (NCI-H23 lung): 570 nM
- TGI (NCI-H23 lung): > 100 µM
- GI50 (MDA-MB-231 breast): 868 nM
- TGI (MDA-MB-231 breast): > 100 µM

— PubChem BioAssay (NCI)
